In US4169157A, “Therapeutic preparations for peptic ulcers comprising aliphatic ketone derivative” (Eisai Co., Ltd., priority 1977, dated 1979):
“Also recorded” adds a separate entry of the source.

Tests used:
peptic ulcers = assay: Therapeutic effect on peptic ulcers (overall result of the pharmacological experiments); assay type: in vivo, SD strain rats; details: from the results of the above-described pharmacological experiments
subacute aspirin ulcer = assay: Effect on subacute aspirin ulcer; assay type: in vivo, SD strain male rats; details: for inhibition in vivo at 200 mg/kg: 144 h, read-out: Inhibition rate to the development of the subacute aspirin ulcer; for Inhibitory effect on subacute aspirin ulcer (in words): 200 mg/kg/day for five days
Procedure: Aspirin in amount of 200 mg/kg/day was orally administered to SD strain male rats (body weight of about 250 g, nine weeks old) after abstinence from the food for 24 hours. The rats were fed for one hour, after one hour from said administration, and again abstained from the food. The administration of aspirin was continued for five days in the same schedule as mentioned above. The effect was estimated on the sixth day.
All the test compounds were emulsified with 5% gum arabic solution and one drop of Tween 80. The emulsions were administered continuously for five days, together with aspirin to rat. The dose amounted to 200 mg/kg/day, and the volume of the dose was controlled to 0.5 ml/100 g B. W. The blank test was similarly effected as pharmacological experiment 1.
The effect of the test compound was estimated by finding the value (ulcer index) of the total lengths of erosions developed in the glandular portion of the test animal with respect to the test compounds group and the blank test group, respectively, and calculating from said value the effect of the administration of the test compounds as the inhibition rate.

histamine ulcer = assay: Effect on the Histamine ulcer; assay type: in vivo, SD strain male rats; details: 100 mg/kg oral; for inhibition in vivo at 100 mg/kg: read-out: Inhibition rate to the development of the histamine ulcer
Procedure: According to the Okabe et al. method [[…] 26 (1) 89-93 (1975)], the inhibitory effects of the test compounds on the development of ulcer due to the administration of histamine were estimated using SD strain male rats weighing about 350 g as the test animals.
The methods for administration and estimation of the effect of the test compounds are carried out according to the procedure in pharmacological experiment 1.
A dose of the test compounds amounted to 100 mg/kg.
The histamine was administered intraperitoneally to the test animal in an amount of 200 mg/kg as the hydrochloride.
The effect was estimated 4 hours after the administration of the histamine.

[1] = system: cold and restraint stress ulcer; assay: Effect on the cold and restraint stress ulcer; assay type: in vivo, SD strain female rats; details: 200 mg/kg oral; for Inhibition rate to the development of the ulcer (in words): compared with control compound A (Gefarnate); for inhibition in vivo at 200 mg/kg: 2 h, read-out: Inhibition rate to the development of the cold and restraint stress ulcer
Procedure: Preventive effect of the test compounds on the development of the cold and restraint stress ulcer was estimated according to Levine's method [Proc. Soc. Exptl. Biol. Med., 124, 1221 (1967)], using SD strain female rats weighing about 170 g, and being 8-10 weeks old, as test animals.
All test compounds were suspended in 5% gum arabic solution and one drop of Tween 80, and the suspension was orally administered to rat. A dose amounted to 200 mg/kg, and the volume of the administrative dose was controlled to 0.5 ml/100 g B. W. As a blank test, 5% gum arabic solution was administered.
The administration of the test compounds and the blank test were carried out 30 minutes before adopting the cold and restraint stress.
The effect of the test compounds was estimated by finding the value (ulcer index) of the total length of the erosion observed in the glandular portion of the test animals two hours after the cold and restraint stress, and calculating the effect of the administration of said compounds as the inhibition rate of the development of the ulcer from the value. [formula]

indomethacin ulcer = assay: Effect on Indomethacin ulcer; assay type: in vivo, SD strain female rats; details: for inhibition in vivo at 100 mg/kg: 4 h, read-out: Inhibition rate on the development of indomethacin ulcer
Procedure: The inhibitory effects of the test compounds on the development of the ulcer due to the administration of indomethacin were estimated using SD strain female rats weighing about 200 g as the test animals.
The methods for administration and estimation of the effect of the test compounds are carried out according to the procedure in pharmacological experiment 2.
The dose of the test compound amounted to 100 mg/kg. The indomethacin was orally administered in the dose of 20 mg/kg. The effect was estimated four hours after the administration of indomethacin.

[2] = 200 mg/kg/day for five days together with aspirin 200 mg/kg/day oral, estimated on sixth day, rat
[3] = histamine 200 mg/kg intraperitoneally, 4 hours after histamine, rat
[4] = 30 minutes before stress, ulcer index two hours after stress, rat
[5] = indomethacin 20 mg/kg oral, four hours after indomethacin, rat

Row | Compound | Therapeutic effect on the peptic ulcers (in words) (peptic ulcers) | Inhibition rate to the development of the subacute aspirin ulcer (subacute aspirin ulcer; [2]) [%] | Effect on the histamine ulcer of rat (in words) (histamine ulcer) | Inhibition rate to the development of the histamine ulcer (histamine ulcer; [3]) [%] | Inhibition rate to the development of the cold and restraint stress ulcer [1, 4] [%] | Inhibition rate to the development of the ulcer (in words) [1] | Inhibition rate on the development of indomethacin ulcer (indomethacin ulcer; 100 mg/kg, indomethacin 20 mg/kg oral, four hours after indomethacin, rat) [%] | inhibition in vivo at 200 mg/kg (subacute aspirin ulcer; [2]) [%] | inhibition in vivo at 100 mg/kg (histamine ulcer; [3]) [%] | inhibition in vivo at 200 mg/kg [1, 4] [%] | inhibition in vivo at 100 mg/kg (indomethacin ulcer; [5]) [%] | Inhibitory effect on subacute aspirin ulcer (in words) (subacute aspirin ulcer) | Inhibitory effect on the development of the indomethacin ulcer (in words) (indomethacin ulcer; 100 mg/kg)
1 | 6,10,14-trimethyl-5,9,13-octadecatriene-2-on [subject compound A] | high therapeutic effect on the peptic ulcers | 56.7 | more inhibitory effect than that of the control compound | 50.4 | 71.4 | higher than that of the control compound A | 75.4 | – | – | – | – | – | –
2 | CC(=O)CCCC(C)CCCC(C)CCCC(C)CCCC(C)C (stereo not shown) [subject compound E, 6,10,14,18-tetramethyl-nonadecane-2-on] | high therapeutic effect on the peptic ulcers | – | – | – | – | higher than that of the control compound A | – | 48.5 | 22.4 | 67.8 | 71.1 | – | –
3 | CC(=O)C(CC=C(C)CCC=C(C)CCC=C(C)CCC=C(C)C)C(C)=O [subject compound G, 3-acetyl-6,10,14,18-tetramethyl-5,9,13,17-nonadecatetraene-2-on] | high therapeutic effect on the peptic ulcers | – | – | – | – | higher than that of the control compound A | – | 64.5 | 40.8 | 70.5 | 64.9 | – | –
4 | CC(=O)CCC=C(C)CCC=C(C)CCC=C(C)CCC=C(C)C [subject compound B, 6,10,14,18-tetramethyl-5,9,13,17-nonadecatetraene-2-on] | high therapeutic effect on the peptic ulcers | – | more inhibitory effect than that of the control compound | – | – | higher than that of the control compound A; also recorded: particularly the most effective compound | – | 73.2 | 53.8 | 75.7 | 91.3 | Inhibitory effect was shown | Particularly high inhibitory effect
5 | CC(C)=CCCC(C)=CCCC(C)=CCCC(C)=CCCC(=O)C(C)C [subject compound C, 2,7,11,15,19-pentamethyl-6,10,14,18-eicosatetraene-3-on] | high therapeutic effect on the peptic ulcers | – | – | – | – | higher than that of the control compound A | – | 50.9 | 44.7 | 67.1 | 86.7 | – | Particularly high inhibitory effect
6 | CC(=O)CCC=C(C)CCCC(C)CCCC(C)CCCC(C)C (stereo not shown) [subject compound D, 6,10,14,18-tetramethyl-5-nonadecaene-2-on] | high therapeutic effect on the peptic ulcers | – | – | – | – | higher than that of the control compound A | – | 61.8 | 35.2 | 72 | 75.5 | Inhibitory effect was shown | –
7 | CC(C)=CCCC(C)=CCCC(C)=CCCC(=O)OCC=C(C)CCC=C(C)C [control compound A, reference compound] | – | – | no appreciable effect | – | – | – | – | 21 | 15.4 | 47.2 | 45 | – | –
8 | CCCC(=O)CCC=C(C)CCC=C(C)CCC=C(C)CCC=C(C)C [subject compound F, 8,12,16,20-tetramethyl-7,11,15,19-heneicosatetraene-4-on] | high therapeutic effect on the peptic ulcers | – | more inhibitory effect than that of the control compound | – | – | higher than that of the control compound A | – | 52.7 | 49 | 69.5 | 88.5 | – | Particularly high inhibitory effect
